Holding throughout (experiment): relative viability (nuclei count vs DMSO), 5 days (fraction); higher = more cells survive
Compound in assay [1]: C1CC1C(=O)NC2=NNC3=C2C=CC(=C3)C4=CC(=CC=C4)C(=O)NC5CC5 [XMD13-2] + COc1cccc2cc(-c3nc([C@H]4CC[C@H](C(=O)O)CC4)n4ncnc(N)c34)[nH]c12 [OSI-027] (partner 0.5 µM)
In a few lines:
(§1)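 Relative viability is defined as nuclei in treated wells over nuclei in vehicle wells. Duplicate plates were run and medians reported. Lung cancer cell lines in 1536-well plates were dosed by pin tool one day after seeding, with one drug or with a fixed anchor-drug dose plus five library-drug doses (not always all listed) in √10 steps, and nuclei were counted after 5 days.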

Compound in assay [2]: C1CC1C(=O)NC2=NNC3=C2C=CC(=C3)C4=CC(=CC=C4)C(=O)NC5CC5 [XMD13-2] + CS(=O)(=O)N1CCN(Cc2cc3nc(-c4cccc5[nH]ncc45)nc(N4CCOCC4)c3s2)CC1 [Pictilisib] (partner 1 µM)
In a few lines: as §1

Compound in assay [3]: Cc1ccc(C(=O)Nc2cccc(C(F)(F)F)c2)cc1Nc1cncc(C(N)=O)c1 [ALW-II-49-7] + Cc1nc(NC(=O)N2CCC[C@H]2C(N)=O)sc1-c1ccnc(C(C)(C)C(F)(F)F)c1 [Alpelisib] (partner 2 µM)
In a few lines: as §1

Compound in assay [4]: Cc1ccc(C(=O)Nc2cccc(C(F)(F)F)c2)cc1Nc1cncc(C(N)=O)c1 [ALW-II-49-7] + O=C(CCCCCCC(=O)Nc1ccccc1)NO [Vorinostat] (partner 1 µM)
In a few lines:
as §1

As to BEN, the relative viability in assay [1] (first compound 0.05 µM) is 0.309; in assay [1] (first compound 0.1581 µM), 0.276; in assay [1] (first compound 0.5 µM) it was 0.312; in assay [1] (first compound 1.581 µM), 0.291; in assay [1] (first compound 5 µM), 0.327; in assay [2] (first compound 0.05 µM) it was 0.663. The relative viability is 0.535 in assay [2] (first compound 0.1581 µM); 0.585 in assay [2] (first compound 0.5 µM); 0.562 in assay [2] (first compound 1.581 µM); 0.523 in assay [2] (first compound 5 µM); 0.993 in assay [3] (first compound 0.08 µM); 0.93 in assay [3] (first compound 0.253 µM). Further, the relative viability in assay [3] (first compound 0.8 µM) came to 0.936; in assay [3] (first compound 8 µM), 1.17; in assay [4] (first compound 0.08 µM) it was 0.557; in assay [4] (first compound 0.253 µM) it was 0.723; in assay [4] (first compound 0.8 µM), 0.592; in assay [4] (first compound 2.53 µM), 0.441. For the same cell line, in assay [4] (first compound 8 µM), the relative viability was 0.558.

For CAL-12T, the relative viability came to 0.803 in assay [1] (first compound 0.05 µM); 0.585 in assay [1] (first compound 0.1581 µM); 0.549 in assay [1] (first compound 0.5 µM); 0.426 in assay [1] (first compound 1.581 µM); 0.577 in assay [1] (first compound 5 µM); 0.531 in assay [2] (first compound 0.05 µM). The relative viability in assay [2] (first compound 0.5 µM) was 0.339; in assay [2] (first compound 1.581 µM) it was 0.327; in assay [2] (first compound 5 µM) it was 0.371; in assay [3] (first compound 0.08 µM), 1.26; in assay [3] (first compound 0.253 µM), 1.14; in assay [3] (first compound 0.8 µM), 1.2. In addition, the relative viability in assay [3] (first compound 2.53 µM) worked out at 1.21; in assay [3] (first compound 8 µM) it was 1.26; in assay [4] (first compound 0.08 µM), 0.681; in assay [4] (first compound 0.253 µM), 0.866; in assay [4] (first compound 0.8 µM), 0.834; in assay [4] (first compound 2.53 µM), 0.737. Besides, the relative viability in assay [4] (first compound 8 µM) turned out to be 0.76.

As to COR-L23, the relative viability was determined as 0.915 in assay [1] (first compound 0.05 µM); 0.78 in assay [1] (first compound 0.1581 µM); 0.838 in assay [1] (first compound 0.5 µM); 0.711 in assay [1] (first compound 1.581 µM); 0.864 in assay [1] (first compound 5 µM); 0.8 in assay [2] (first compound 0.05 µM). The relative viability in assay [2] (first compound 0.1581 µM) was determined as 0.72; in assay [2] (first compound 0.5 µM), 0.857; in assay [2] (first compound 1.581 µM) it was 0.818; in assay [2] (first compound 5 µM), 0.64; in assay [3] (first compound 0.08 µM), 0.756; in assay [3] (first compound 0.253 µM) it was 0.536. Besides, the relative viability came out at 0.741 in assay [3] (first compound 0.8 µM); 0.898 in assay [3] (first compound 2.53 µM); 0.667 in assay [3] (first compound 8 µM); 0.409 in assay [4] (first compound 0.08 µM); 0.452 in assay [4] (first compound 0.253 µM); 0.496 in assay [4] (first compound 0.8 µM). Also, the relative viability in assay [4] (first compound 2.53 µM) came to 0.414; in assay [4] (first compound 8 µM), 0.385.

Regarding COR-L 105, the relative viability is 0.83 in assay [1] (first compound 0.05 µM); 0.658 in assay [1] (first compound 0.1581 µM); 0.668 in assay [1] (first compound 0.5 µM); 0.66 in assay [1] (first compound 1.581 µM); 0.707 in assay [1] (first compound 5 µM); 0.398 in assay [2] (first compound 0.05 µM). Besides, the relative viability in assay [2] (first compound 0.1581 µM) was 0.361; in assay [2] (first compound 0.5 µM), 0.437; in assay [2] (first compound 1.581 µM), 0.458; in assay [2] (first compound 5 µM), 0.335; in assay [3] (first compound 0.08 µM), 1.14; in assay [3] (first compound 0.253 µM), 1.03. In addition, the relative viability amounted to 0.894 in assay [3] (first compound 0.8 µM); 0.93 in assay [3] (first compound 2.53 µM); 0.943 in assay [3] (first compound 8 µM); 0.772 in assay [4] (first compound 0.08 µM); 0.911 in assay [4] (first compound 0.253 µM); 0.688 in assay [4] (first compound 0.8 µM). Besides, the relative viability in assay [4] (first compound 2.53 µM) stood at 0.809; in assay [4] (first compound 8 µM), 0.967.

(Values after the supplement of paper PMC10307832.)
